# In patent publication US10231956B2, “3-(1H-pyrrolo[3,2-C]pyridin-2-YL)-1 H-pyrazolo[4,3-B]pyridines and therapeutic uses thereof” (Samumed, LLC, priority 2015, dated 2019):
# Experiments:
# Format in all cases: cell-based
# [1] = test system: SW480 colon cancer cells; assay: Cell viability assay (CellTiter-Blue) in SW480 colon cancer cells; conditions: Homo sapiens, 96 h, four days, CellTiter-Blue
# Protocol: Representative compounds were screened using the following assay procedure to assess the effect on cell viability as described below.
# Each compound was dissolved in DMSO as a 10 mM stock and used to prepare compound source plates. Serial dilution (1:3, 8-point dose-response curves from 10 μM to 0.0045 μM) and compound transfer was performed using the ECHO 550 (Labcyte, Sunnyvale, Calif.) into 96-well clear bottom, black-walled plates (Corning-Costar).
# Approximately 2×10^3 SW480 colon cancer cells were seeded into each well and allowed to incubate in the presence or absence of compound for four days at 37° C./5% CO2. Eight replicates of DMSO-treated cells served as controls and cells treated with compound were performed in duplicate.
# After incubation, 20 μL of CellTiter-Blue (Promega) was added to each well allowed to incubate for approximately 3 hours. This reagent was a buffered solution which contains resazurin, metabolically active cells were able to reduce rezarurin (blue) into resorufin (pink) which was highly fluorescent. This measured fluorescence was used as a readout for cell viability.
# After incubation, the plates were read at Ex 560 nm Em 590 nm (Cytation 3, BioTek). Dose-response curves were generated and EC50 concentration values were calculated using non-linear regression curve fit in the GraphPad Prism (San Diego, Calif.) or Dotmatics' Studies Software (Bishops Stortford, UK). For EC50 of >10 μM, the percent inhibition at 10 μM is provided.
# [2] = test system: Wnt activity (Sp5-Luc reporter, SW480 colon carcinoma cells); assay: Sp5-Luc reporter gene screening assay for Wnt activity in SW480 cells; conditions: Homo sapiens, luminescence, overnight incubation
# Description: The screening assay for Wnt activity is described as follows. Reporter cell lines can be generated by stably transducing cancer cell lines (e.g., colon cancer) or primary cells (e.g., IEC-6 intestinal cells) with a lentiviral construct that includes a Wnt-responsive promoter driving expression of the firefly luciferase gene.
# SW480 colon carcinoma cells were transduced with a lentiviral vector expressing luciferase with a human Sp5 promoter consisting of a sequence of eight TCF/LEF binding sites. SW480 cells stably expressing the Sp5-Luc reporter gene and a hygromycin resistance gene were selected by treatment with 150 μg/mL of hygromycin for 7 days. These stably transduced SW480 cells were expanded in cell culture and used for all further screening activities. Each compound was dissolved in DMSO as a 10 mM stock and used to prepare compound source plates. Serial dilution (1:3, 10-point dose-response curves starting from 10 μM) and compound transfer was performed using the ECHO 550 (Labcyte, Sunnyvale, Calif.) into 384-well white solid bottom assay plates (Greiner Bio-One) with appropriate DMSO backfill for a final DMSO concentration of 0.1%. For Sp5-Luc reporter gene assays, the cells were plated at 4,000 cells/well in 384-well plates with medium containing 1% fetal bovine serum and incubated overnight at 37° C. and 5% CO2. Following incubation, 20 μl of BrightGlo luminescence reagent (Promega) was added to each well of the 384-well assay plates. The plates were placed on an orbital shaker for 2 min and then luminescence was quantified using the Envision (Perkin Elmer) plate reader. Readings were normalized to DMSO only treated cells, and normalized activities were utilized for EC50 calculations using the dose-response log (inhibitor) vs. response-variable slope (four parameters) nonlinear regression feature available in GraphPad Prism 5.0 (or Dotmatics). For EC50 of >10 μM, the percent inhibition at 10 μM is provided.
# [3] = test system: IL-6; assay: IL-6 inhibition in LPS-stimulated THP-1 cells (HTRF); conditions: Homo sapiens, LPS 500 ng/mL, 22 hours, IL6 HTRF
# Protocol: Human Monocyte Cell Culture: Human monocyte cell line (THP-1 cells; Catalog # TIB-202, ATCC, Manassas, Va.) were cultured in Roswell Park Memorial Institute (RPMI) 1640 Medium (Catalog #21870-100, Buffalo, N.Y.) with 1% L-glutamine, 1% HEPES, 1% Sodium Pyruvate, 2% Sodium Bicarbonate supplemented with 100 units/mL penicillin, 50 μg/mL streptomycin, 2-mercaptoethanol (0.05 mM) [basal medium] and 10% fetal bovine serum (Catalog #16140089, Life Technologies, Carlsbad, Calif.) at 37° C. and 5% CO2.
# Compound Screening: THP-1 cells were cultured in basal media with 1% FBS for 24 hours before the start of the assay. Each compound was dissolved in DMSO as a 10 mM stock and used to prepare compound source plates. Serial dilution (1:3, 10-point dose-response curves starting from 1 μM) and compound transfer was performed using the ECHO 550 (Labcyte, Sunnyvale, Calif.) into 384-well white low volume assay plates (Greiner Bio-One) with appropriate DMSO backfill for a final DMSO concentration of 0.1%. THP-1 cells were plated at 5000 cells/well in the 384-well plates and incubated at 37° C. for 2 h. 500 ng/mL of LPS was added after 2 hours and cells were incubated for another 22 hours at 37° C. Plates were spun in a centrifuge for 1 minute at 10,000 rpm and a mixture of anti-IL6 XL665, and anti-IL6 Cryptate diluted in reconstitution buffer (Cisbio Inc.) was added to each well. Following incubation for 3 hrs at room temperature, Homogeneous Time-Resolved Fluorescence (HTRF) was measured using the Envision (Perkin Elmer) at 665 nm and […]. The ratio of fluorescence at 665 nm to 620 nm was used as a readout for IL6 quantification. All samples were processed in duplicate. Readings were normalized to DMSO treated cells and normalized activities were utilized for EC50 calculations using the dose-response log (inhibitor) vs. response-variable slope (four parameters) nonlinear regression feature available in GraphPad Prism 5.0 (or Dotmatics). For EC50 of >10 μM, the percent inhibition at 10 μM is provided.
# [4] = test system: primary human fibroblasts derived from IPF patients (LL29 cells); assay: Inhibition of fibrotic process: αSMA staining in TGF-β1 treated LL29 fibroblasts; conditions: Fibroblast, 96 h, TGF-β1 20 ng/mL, 4 days, % cells positive for αSMA
# Description: Representative compounds were screened using primary human fibroblasts (derived from IPF patients) treated with TGF-β1 to determine their ability to inhibit the fibrotic process.
# Human Fibroblast Cell Culture: Primary human fibroblasts derived from IPF patients (LL29 cells) [^1Xiaoqiu Liu, et. al., “Fibrotic Lung Fibroblasts Show Blunted Inhibition by cAMP Due to Deficient cAMP Response Element-Binding Protein Phosphorylation”, Journal of Pharmacology and Experimental Therapeutics (2005), 315(2), 678-687; ^2Watts, K. L., et. al., “RhoA signaling modulates cyclin D1 expression in human lung fibroblasts; implications for idiopathic pulmonary fibrosis”, Respiratory Research (2006), 7(1), 88] were obtained from American Type Culture Collection (ATCC) and expanded in F12 medium supplemented with 15% Fetal Bovine Serum and Penicillin/Streptomycin.
# Compound Screening: Each compound was dissolved in DMSO as a 10 mM stock and used to prepare compound source plates. Serial dilution (1:2, 11-point dose-response curves from […]) and compound transfer was performed using the ECHO 550 (Labcyte, Sunnyvale, Calif.) into 384-well clear bottom assay plates (Greiner Bio-One) with appropriate DMSO backfill for a final DMSO concentration of 0.1%. LL29 cells are plated at 1,500 cells/well in 80 μL/well F12 medium supplemented with 1% Fetal Bovine Serum. One hour after addition of the cells, TGF-β1 (Peprotech; 20 ng/mL) was added to the plates to induce fibrosis (ref. 1 and 2 above). Wells treated with TGF-β1 and containing DMSO were used as controls. Cells were incubated at 37° C. and 5% CO2 for 4 days. Following incubation for 4 days, SYTOX green nucleic acid stain (Life Technologies [Thermo Fisher Scientific]) was added to the wells at a final concentration of 1 μM and incubated at room temperature for 30 min. Cells were then fixed using 4% formaldehyde (Electron Microscopy Sciences), washed 3 times with PBS followed by blocking and permeabilization using 3% Bovine Serum Albumin (BSA; Sigma) and 0.3% Triton X-100 (Sigma) in PBS. Cells were then stained with antibody specific to α-smooth muscle actin (αSMA; Abcam) (ref. 1 and 2 above) in 3% Bovine Serum Albumin (BSA; Sigma) and 0.3% Triton X-100 (Sigma) in PBS, and incubated overnight at 4° C. Cells were then washed 3 times with PBS, followed by incubation with Alexa Flor-647 conjugated secondary antibody (Life Technologies [Thermo Fisher Scientific]) and DAPI at room temperature for 1 hour. Cells were then washed 3 times with PBS and plates were sealed for imaging. αSMA staining was imaged by excitation at 630 nm and emission at 665 nm and quantified using the Compartmental Analysis program on the CellInsight CX5 (Thermo Scientific). Dead or apoptotic cells were excluded from analysis based on positive SYTOX green staining. % of total cells positive for αSMA were counted in each well and normalized to the average of 11 wells treated with TGF-β1 on the same plate using Dotmatics' Studies Software. The normalized averages (fold change over untreated) of 3 replicate wells for each compound concentration were used to create dose-responses curves and EC50 values were calculated using non-linear regression curve fit in the Dotmatics' Studies Software. For EC50 of >10 μM, the percent inhibition at 10 μM is provided.
structure (smiles),measurement,setting,value
"Oc1cncc(-c2ccc3[nH]nc(-c4cc5c(-c6cccs6)nccc5[nH]4)c3n2)c1 [Compound 709, 5-(3-(4-(Thiophen-2-yl)-1H-pyrrolo[3,2-c]pyridin-2-yl)-1H-pyrazolo[4,3-b]pyridin-5-yl)pyridin-3-ol]",EC50,[1],457 nM
same,EC50,[2],150 nM
same,EC50,[3],1790 nM
same,EC50,[4],34 nM
